Source: US7947280B2 (priority 2003, dated 2011)
“Also recorded” adds a separate entry of the source.

Tests used:
[1] = system: superoxide production in aortic tissue of apoE knockout mice; assay: Lucigenin-enhanced chemiluminescence of aortic superoxide; type: in vivo, mouse
Protocol: Lucigenin-enhanced chemiluminescence. Total aortic superoxide was measured by lucigenin-enhanced chemiluminescence as described previously. Aortas were harvested flushed with Krebs-HEPES buffer, opened longitudinally and divided into halves. Vessels were gassed with 95% oxygen/5% carbon dioxide in warmed Krebs-HEPES buffer for 30 minutes before measurements of chemiluminescence in a luminometer (manufacturer, location) using 20 μmol/L lucigenin. One half of each vessel was incubated in L-NAME (1 mmol/L). After measuring baseline readings for 4 minutes, samples were equilibrated and dark adapted for 5 mins, and chemiluminescence was recorded for 10 minutes. Recordings were performed blinded to the samples identity. Results were expressed as counts per second per milligram of tissue dry weight.

[2] = system: superoxide production in aortic sections; assay: Dihydroethidium oxidative fluorescence microtopography; type: in vivo, mouse
Protocol: Oxidative fluorescent microtopography. Superoxide was detected in the layers of the vessel wall using fluorescent probe dihydroethidium as described previously. Fresh segments of upper descending thoracic aorta were frozen in OCT compound. […] Molecular Probes). Images were obtained on a confocal microscope (Bio-Rad MRC-1024 laser; filter settings: excitation filter 488 nm; emission filter 550 nm). 2-hydroxyethidium fluorescence was measured from high power (60× mag) images. Endothelium by quantifying fluorescence (intensity×area) on the luminal side of the internal elastic lamina, media between the internal and external elastic lamina, and adventitia outside the external elastic lamina. Quantification was performed using Image Pro Plus software (Media Cybernetics, Silver Springs, Md.). Medial Analysis was performed blind to the samples identity.

C57B/16 mice = assay: Magnetic resonance imaging after intraperitoneal apelin-12 injection; type: in vivo, mouse; conditions: post apelin-12 300 μg/kg intraperitoneal, one hour prior to scanning; n=9
Protocol: Magnetic resonance imaging. […] Platinum needle ECG leads were inserted subcutaneously. Respiration was monitored by means of a pneumatic pillow sensor positioned against the abdomen. Mouse body temperature was maintained during scanning at 37° C. by a flow of heated air thermostatically controlled by a rectal temperature probe. Magnetic resonance images were acquired on a 4.7T Oxford magnet controlled by a Varian Inova console (Varian, Palo Alto, Calif.) using a transmit-receive, quadrature, volume coil with an inner diameter of 3.5 cm. Image acquisition was gated to respiration and to the ECG R wave (SA Instruments, Stony Brook, N.Y.). Coronal and sagittal scout images led to the acquisition of multiple contiguous 1 mm thick, short axis slices orthogonal to the interventricular septum. […] Planimetry measurements of end diastolic and end systolic dimension were derived offline from short axis views of the left ventricle at the level of the papillary muscles using ImageJ software (National Institutes of Health, Bethesda, Md.). Ejection fraction was calculated as [[…]. Data Analysis. […] Exact p values are reported for all comparisons.

APJ [3] = biological target: T1, APJ (Homo sapiens, UniProt P35414); conditions: cited from earlier work
T1 sequence (P35414 1-380): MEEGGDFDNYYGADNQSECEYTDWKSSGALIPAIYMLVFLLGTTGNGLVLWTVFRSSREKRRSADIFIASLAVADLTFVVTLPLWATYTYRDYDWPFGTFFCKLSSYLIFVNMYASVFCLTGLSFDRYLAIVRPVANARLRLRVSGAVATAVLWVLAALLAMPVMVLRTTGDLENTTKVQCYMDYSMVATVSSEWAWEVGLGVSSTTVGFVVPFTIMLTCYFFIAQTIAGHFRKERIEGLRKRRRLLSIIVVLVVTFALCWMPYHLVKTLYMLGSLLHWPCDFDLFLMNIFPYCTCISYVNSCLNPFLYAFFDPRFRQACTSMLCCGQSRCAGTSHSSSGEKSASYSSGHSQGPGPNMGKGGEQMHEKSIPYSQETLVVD

ApoE-KO mice [4] = assay: Vein graft neointimal hyperplasia model; type: in vivo, mouse; conditions: AngII infusion
Protocol: (§1) Animals. Mice were maintained in temperature-controlled (20° C. to 22° C.) environment with a 12-hour light-dark cycle. Sterile water and standard chow diet were available ad libitum. All mice were C57BL/6J ApoE-KO male mice (Jackson Laboratories, Bar Harbor, […].) between the ages of 8-12 weeks. […] Animal procedures were carried out in accordance with the Institutional Review Board Guidelines at Stanford University.

ApoE-KO mice [5] = assay: Atherosclerotic lesion analysis in ApoE-KO mice; type: in vivo, mouse
Protocol: as §1, with “Sterile water and standard chow diet were available ad libitum.” left out
Tissue preparation, histology and lesion quantification. Mice were euthanized 28 days following implantation of osmotic mini-pumps. The thoracic cage was removed and the animal perfused with phosphate buffered saline solution (PBS) for 2 minutes. The entire aorta and vein graft were exposed and the periadventitial tissue and scar tissue dissected and removed. Subsequently mice were perfusion fixed in situ with 4% phosphate-buffered paraformaldehyde. In some animals aorta and lung were removed fresh for biochemical assays.
Atherosclerotic Lesion Analysis Atherosclerosis lesion area was determined as described previously. Briefly, the arterial tree was perfused with PBS (pH 7.3) and then perfusion fixed with phosphate-buffered paraformaldehyde (3%, pH 7.3). The heart and full length of the aorta-to-iliac bifurcation was exposed and dissected carefully from any surrounding tissues. Aortas were then opened along the ventral midline and dissected free of the animal and pinned out flat, intimal side up, onto black wax. Aortic images were captured with a digital camera (DMC1) mounted on a Leica MZ6 stereomicroscope and analyzed using Fovea Pro (Reindeer Graphics, Asheville, N.C.). Percent lesion area was calculated as total lesion area divided by total surface area.

APJ [6] = biological target: T1, APJ; conditions: cited from earlier work; remark: listed apart in the source
[7] = system: NFκB, NFAT, AP-1 and SRE reporter constructs; assay: Luciferase reporter assays of AngII nuclear signaling in HEK-293 cells; type: cell-based; conditions: HEK-293 cells co-transfected with AT1; AngII stimulation
From the text: cDNA Constructs APJ expression construct was purchased from cDNA.org. AT1R construct was obtained from Dr. Marc Caron. AT1R transcript was inserted into a pEGFP-N1 vector (Clonetech). The NF-kB and SRE luciferase reporter constructs were obtained from BD Biosciences.
(§2) Cells were immediately lysed.

AT1R = biological target: T2, AT1R (Rattus norvegicus, UniProt P25095); assay: Competitive ligand binding with FAM-labeled AngII in HEK-293 cells; conditions: unlabeled ligand 100 nM; HEK-293 cells transfected with AT1R
T2 construct: expressed in transfected cells; host or cells: HEK-293
T2 sequence (P25095 1-359): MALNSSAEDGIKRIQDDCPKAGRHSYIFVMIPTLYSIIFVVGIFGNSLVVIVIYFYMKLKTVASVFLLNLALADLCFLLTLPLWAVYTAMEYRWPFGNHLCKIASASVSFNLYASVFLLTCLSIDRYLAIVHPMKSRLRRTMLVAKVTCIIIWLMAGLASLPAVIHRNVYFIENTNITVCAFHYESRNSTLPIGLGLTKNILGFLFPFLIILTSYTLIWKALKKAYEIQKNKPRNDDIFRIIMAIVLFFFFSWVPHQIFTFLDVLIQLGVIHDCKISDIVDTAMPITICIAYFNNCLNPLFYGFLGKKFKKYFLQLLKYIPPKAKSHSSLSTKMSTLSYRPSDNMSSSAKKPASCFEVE

[8] = system: AT1R and APJ heterodimerization; assay: AT1R-APJ receptor heterodimerization by immunoprecipitation; type: cell-based; conditions: AngII, 1 and 6 hours of treatment; co-transfected cells
Protocol: as §2
Immunoprecipitation and Western Blotting Immunoprecipitation was performed as previously described (REF). In brief, cells were lysed using 10× Cell Lysis Buffer (Cell Signaling Technologies CITY). Lysates were precleared with protein G and immunoprecipitation was performed with the respective antibodies at concentration of 1 mg/mL for 24 hrs at 4C. Protein G agarose was added and incubated for additional 2 hours. Western blotting on SDS-PAGE gels were performed as previously described, and the bands were visualized using the enhanced chemiluminescence system (Amersham Biosciences).

ApoE-KO mice [9] = assay: AngII induced abdominal aortic aneurysm formation model; type: in vivo, mouse
Protocol: as §1
Abdominal aortic aneurysm formation, sudden death and vein graft procedure. […] Abdominal aortic aneurysm was defined as ≧50% enlargement of the maximal abdominal aorta diameter. Mice that were found dead without any preceding signs of suffering were defined as sudden death.

Compound: COC(=O)[C@@H](N)CCCNC(=N)N[N+](=O)[O-] [L-NAME]
- increase in total superoxide production on incubation with L-NAME ([1]; aorta from apelin treated mice, L-NAME 1 mmol/L): 2 fold
- total superoxide levels on incubation with L-NAME ([1]; aorta from saline, AngII or AngII+apelin treated animals, L-NAME 1 mmol/L): not significantly different

Compound: COc1cc(C(C)=O)ccc1O [apocynain]
- total medial fluorescence after incubation with NADPH oxidase inhibitor ([2]; aortic sections from apelin treated mice): did not find this effect
- total medial fluorescence after incubation with NADPH oxidase inhibitor ([2]; aortic sections from saline, AngII and apelin+AngII treated mice, 50 μmol/l): dramatically reduced; also recorded: blocked

Compound: H-Arg-Pro-Arg-Leu-Ser-His-Lys-Gly-Pro-Met-Pro-Phe-OH [apelin-12]
- Ejection fraction (C57B/16 mice): upward trend
- heart rate (inverse of R-R interval of electrocardiogram) (C57B/16 mice): significant increase
- left ventricular end diastolic area (C57B/16 mice): significant reduction; also recorded: significantly decreased
- activation of APJ (APJ [3]): activate APJ

Compound: H-Leu-Val-Gln-Pro-Arg-Gly-Ser-Arg-Asn-Gly-Pro-Gly-Pro-Trp-Gln-Gly-Gly-Arg Arg-Lys-Phe-Arg-Arg-Gln-Arg-Pro-Arg-Leu-Ser-His-Lys-Gly-Pro-Met-Pro-Phe-OH (H-LVQPRGSRNGPGPWQGGRRKFRRQRPRLSHKGPMPF-OH; listed as Homo sapiens) [apelin-36]
- activation of APJ (APJ [3]): activate APJ

Compound: angiotensin II (DRVYIHPF) [AngII, peptide infused to promote vascular disease and heart failure; AT1R ligand, reference compound]
- increase of vein graft wall area vs saline treated controls (ApoE-KO mice [4]): 33%
- increase in total chemiluminescence (superoxide) ([1]; AngII infusion): 10 fold
- increase of descending aorta atherosclerosis vs saline treated controls (ApoE-KO mice [5]; AngII 1.4 mg/kg/day, 4 week minipump infusion): 82%
- progression of atherosclerosis in aortic root (FIG. 17) (ApoE-KO mice [5]; osmotic minipump during high fat diet exposure): do not alter
- binding to APJ (APJ [6]): does not bind
- reporter transcription (NFκB, NFAT, AP-1, SRE) [7]: significant increase
- competition for binding of FAM-AngII (10 nM) to AT1R (AT1R): competes
- AT1R-APJ receptor heterodimerization [8]: significantly enhanced
- animals with aneurysm formation (ApoE-KO mice [9]; AngII for four weeks): 11/12
- incidence of AAA formation within 4 weeks (ApoE-KO mice [9]; single agent infusion): 92%

Compound: apelin-17
- activation of APJ (APJ [3]): activate APJ
